{"source": "patent US20200268847A1", "about": "“Methods of Treating Newly Diagnosed Multiple Myeloma with a Combination of An Antibody that Specifically Binds CD38, Lenalidomide and Dexamethasone” (Janssen Biotech, Inc., priority 2019, published 2020)", "system": "minimal residual disease (clonal multiple myeloma cells in bone marrow)", "assay": "MAIA: minimal residual disease in bone marrow aspirates by next-generation sequencing (clonoSEQ version 2.0)", "type": "in vivo, human", "conditions": "threshold 1 tumor cell per 10^5 white cells", "description": "MRD status may be assessed from bone marrow aspirate samples using for example next generation sequencing (NGS) of immunoglobulin heavy and light chains. The updated, analytically validated version of the clonoSEQ® Assay (Version 2) by Adaptive Biotechnologies may be used for the detection, quantification and analysis of MRD.\nA central laboratory performed disease evaluations (serum and 24-hour urine samples) every 28 days for 2 years, and then every 8 weeks until disease progression. For patients with positive serum immunofixation and daratumumab (DARZALEX®) interference, complete responses were confirmed using reflex assays (McCudden et al., Clin Chem Lab Med 54:1095-1104, 2016). Minimal residual disease was evaluated by next-generation sequencing assays (clonoSEQ® version 2.0; Adaptive Biotechnologies) on bone marrow aspirates collected at baseline, at time of suspected complete or stringent complete response (undetectable M-protein on two consecutive serum and urine electrophoresis tests), and at 12, 18, 24, and 30 months post-first dose in patients who achieved a complete response or better."}
{"substance": "daratumumab (DARZALEX®) group: daratumumab (DARZALEX®) in combination with lenalidomide and dexamethasone", "values": [{"measurement": "Negative status for minimal residual disease", "setting": "ITT population", "value": "89 (24.2) no. (%)"}, {"measurement": "negative status for minimal residual disease, times as high as in the control group", "value": "more than 3 times"}, {"measurement": "patients minimal residual disease-negative", "setting": "ITT, P<0.0001", "value": 24.2, "unit": "%"}]}
